Assay results taken from patent US11260027B2, “Donor organ pre-treatment formulation” (MUSC FOUNDATION FOR RESEARCH DEVELOPMENT, priority 2015, dated 2022).

Columns and labels:
[1] = target: integrin αVβ3 on human umbilical vein endothelial cells (HUVEC) (human) (UniProt P06756); assay: cell-based or functional assay
aortic allograft = assay: Aortic allograft model of chronic allograft rejection (Balb/c to C57Bl/6); assay type: in vivo, mouse; conditions: 100 or 1000 ng/ml tested; quantified intimal thickening
Protocol: Male Balb/c (H-2^d) and C57BL/6 (B6;H-2^b) mice (8-10 weeks) were obtained from Jackson laboratory (Bar Harbor, Me.). All mice weighed 25-30 g and were housed under specific pathogen-free conditions at the Medical University of South Carolina (Charleston, S.C.) and were used for transplantation studies. In the following series, transplants to male B6 mice were performed under clean conditions using Balb/c donors in the allograft group (Balb/c to B6, n=20) and B6 donors in the isograft group (B6 to B6, n=10). The mice were anesthetized with intraperitoneal injections of ketamine (75 mg/kg, Lloyd Laboratories, Shenandoah, Iowa, USA) and xylazine (16 mg/kg, Vedco, Inc., St. Joseph, Mo., USA) diluted in sterile normal saline. An operating microscope with 16×magnification was used for the surgical procedure. The cuff used for the anastamosis consisted of a 0.6 mm body and a 0.6 mm extension crafted from a 24 gauge polyimide catheter (inner diameter 0.5 mm, wall thickness 0.025 mm, cat. No. 141-0027, Vention Medical, NH, USA).
After satisfactory anesthetic was administered, the donor mouse was placed in supine position and a midline thoraco-abdominal incision was made. […] For orthotopic transplantation, the bowel was reflected cephalad, the colon was retracted to the animal's left side, and the seminal vesicles and testes were distracted caudally. […]

MCEC = test system: MCEC
Protocol: (§1) Human Umbilical Vein Endothelial Cells (HUVEC), complete endothelial growth medium-2 (EGM-2) and bullet kit were purchased from Lonza (Walkersville, Md.). Cells were grown and maintained in a humidified 37° C. and 5% CO2 atmosphere. Cells were expanded on T75 cm^2 polystyrene flasks to passage 5 and plated onto 6-well plates for experimental assays (Fischer Scientific, Pittsburgh, Pa.). MCEC, a normal mouse cardiac endothelial cell line from Cedarlane (Ontario, Canada), were cultured in Dulbecco's Modified Eagle Medium (DMEM) (Life Technologies, CA) supplemented with 10% fetal bovine serum (FBS) in a 37° C. incubator with humidified room air and 5% CO2.
(§2) M-Per lysis of Ecs was used as an assay control.

HUVEC = test system: HUVEC
Protocol: as §1, §2

Chain of integrin αVβ3 on human umbilical vein endothelial cells (HUVEC) (human) (P06756 31-1048, chain 1 of 2): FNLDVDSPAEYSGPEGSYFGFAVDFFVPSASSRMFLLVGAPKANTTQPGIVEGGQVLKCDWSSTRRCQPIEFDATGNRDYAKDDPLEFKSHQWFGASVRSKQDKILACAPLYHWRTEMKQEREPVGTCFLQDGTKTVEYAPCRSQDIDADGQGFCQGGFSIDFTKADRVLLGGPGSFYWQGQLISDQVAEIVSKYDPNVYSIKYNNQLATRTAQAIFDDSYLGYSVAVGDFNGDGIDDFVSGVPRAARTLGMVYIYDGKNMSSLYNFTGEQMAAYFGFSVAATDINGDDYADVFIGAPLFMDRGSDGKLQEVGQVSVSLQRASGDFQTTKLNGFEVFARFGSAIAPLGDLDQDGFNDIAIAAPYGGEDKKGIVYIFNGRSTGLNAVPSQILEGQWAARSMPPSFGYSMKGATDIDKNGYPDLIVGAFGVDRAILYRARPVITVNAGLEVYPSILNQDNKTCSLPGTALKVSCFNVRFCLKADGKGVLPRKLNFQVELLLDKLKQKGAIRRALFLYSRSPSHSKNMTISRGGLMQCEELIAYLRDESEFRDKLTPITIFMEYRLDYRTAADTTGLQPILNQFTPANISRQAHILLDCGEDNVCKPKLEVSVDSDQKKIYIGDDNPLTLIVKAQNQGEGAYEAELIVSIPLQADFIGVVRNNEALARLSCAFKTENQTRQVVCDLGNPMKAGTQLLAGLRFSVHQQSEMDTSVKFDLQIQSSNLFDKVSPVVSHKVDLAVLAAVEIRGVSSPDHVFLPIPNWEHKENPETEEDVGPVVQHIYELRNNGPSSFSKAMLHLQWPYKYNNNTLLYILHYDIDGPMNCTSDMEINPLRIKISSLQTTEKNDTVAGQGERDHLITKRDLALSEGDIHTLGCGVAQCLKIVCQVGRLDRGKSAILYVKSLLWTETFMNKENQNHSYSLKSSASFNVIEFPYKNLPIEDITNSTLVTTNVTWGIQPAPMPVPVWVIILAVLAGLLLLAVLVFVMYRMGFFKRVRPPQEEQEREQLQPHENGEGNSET
Chain of integrin αVβ3 on human umbilical vein endothelial cells (HUVEC) (human) (P05106 27-788, chain 2 of 2, further chain): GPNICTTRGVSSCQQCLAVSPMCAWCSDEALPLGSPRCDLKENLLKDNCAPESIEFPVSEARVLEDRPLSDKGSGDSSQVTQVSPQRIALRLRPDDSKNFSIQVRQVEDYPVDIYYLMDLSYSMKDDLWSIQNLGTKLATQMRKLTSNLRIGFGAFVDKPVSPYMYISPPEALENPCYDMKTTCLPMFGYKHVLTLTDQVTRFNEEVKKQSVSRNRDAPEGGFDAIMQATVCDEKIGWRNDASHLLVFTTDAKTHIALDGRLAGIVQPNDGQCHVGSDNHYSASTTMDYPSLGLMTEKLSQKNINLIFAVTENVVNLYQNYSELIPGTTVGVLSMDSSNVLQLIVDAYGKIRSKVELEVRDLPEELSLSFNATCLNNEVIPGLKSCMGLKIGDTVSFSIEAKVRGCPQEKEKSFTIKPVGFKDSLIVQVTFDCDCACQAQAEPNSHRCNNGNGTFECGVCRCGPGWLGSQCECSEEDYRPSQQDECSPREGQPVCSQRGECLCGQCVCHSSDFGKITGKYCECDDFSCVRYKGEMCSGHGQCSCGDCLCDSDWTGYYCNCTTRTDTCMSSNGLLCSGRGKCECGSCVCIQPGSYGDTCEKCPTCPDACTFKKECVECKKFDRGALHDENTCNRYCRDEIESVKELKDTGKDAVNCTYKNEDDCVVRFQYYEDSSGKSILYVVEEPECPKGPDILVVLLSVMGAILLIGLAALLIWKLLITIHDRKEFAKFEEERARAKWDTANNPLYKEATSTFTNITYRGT

“Targeted Rapamycin Micelles (TRaM): rapamycin micelles bearing the cyclic peptide arginine-glycine-aspartate (cRGD) on the surface, labeled with Dylight 680” was tested, and the increase of fluorescence in HUVEC over a 6 hours period, without brefeldin A (-BA) [1] was 88% and the micelle internalization into HUVEC (confocal microscopy, Dylight 680 fluorescence) compared to untargeted RaM [1] was > 50%.

In the case of CO[C@H]1C[C@@H]2CC[C@@H](C)[C@@](O)(O2)C(=O)C(=O)N2CCCC[C@H]2C(=O)O[C@H]([C@H](C)C[C@@H]2CC[C@@H](O)[C@H](OC)C2)CC(=O)[C@H](C)/C=C(\C)[C@@H](O)[C@@H](OC)C(=O)[C@H](C)C[C@H](C)/C=C/C=C/C=C/1C [free rapamycin, rapamycin], the “dose in Belzer UW solution that provided protection” value (aortic allograft) was 1000 ng/mL, the “cell toxicity and death (MTS cell viability)” value (MCEC) was “do not result in significant cell toxicity and death” and the “concentration that did induce toxicity” value (MCEC; mouse, 6 h) was 3000 ng/mL. For the same compound, the “cell toxicity and death (MTS cell viability)” value (HUVEC) was “do not result in significant cell toxicity and death” and the “concentration that did induce toxicity” value (HUVEC; human, 6 h) was 3000 ng/mL.
